From ChEMBL document CHEMBL3217738, “Preparation of blood-brain barrier-permeable paclitaxel-carrier conjugate and its chemotherapeutic activity in the mouse glioblastoma model” (Medchemcomm, 2011) come the findings set out here.

Series [1] can be described thus: Cytotoxicity against African green monkey COS7 cells assessed as cell viability at 1 uM after 48 hrs by MTT assay relative to control. It counts as cell-based, COS-7. As to conditions: chlorocebus aethiops, read-out: Activity. (Tetrazolium dyes change colour on reduction, which living cells bring about.)
A short description of series [2]: Antitumor activity against human U87MG cells xenografted in Balb/c nude mouse assessed as reduction in tumor volume at 7.5 mg/kg, po administered twice per week for 2 weeks measured after 4 weeks (reference value: 25 +/- 2.6 mm3). It counts as functional, U-87MG ATCC. A general note: A xenograft is tissue or cells of one species grown in another, often human tumour cells in immunodeficient mice.

For series [3], the system named is HeLa. As to the kind of experiment: Cytotoxicity against human HeLa cells assessed as cell viability at 100 uM after 48 hrs by MTT assay relative to control. Type of series: functional. As to conditions: read-out: Activity.
Series [4] deals with HeLa. Briefly: Cytotoxicity against human HeLa cells assessed as cell viability at 1 uM after 48 hrs by MTT assay relative to control. As to conditions: read-out: Activity. It counts as functional.
Series [5] concerns RAW264.7. Briefly: Cytotoxicity against mouse RAW264.7 cells assessed as cell viability at 10 uM after 48 hrs by MTT assay relative to control. The conditions noted are these: RAW264.7, 48 h, read-out: Activity. It counts as functional.
For series [6], the system named is RAW264.7. As to the kind of experiment: Cytotoxicity against mouse RAW264.7 cells assessed as cell viability at 100 uM after 48 hrs by MTT assay relative to control. It counts as functional. As to conditions: RAW264.7, 48 h, read-out: Activity.
Series [7] can be described thus: Cytotoxicity against African green monkey COS7 cells assessed as cell viability at 10 uM after 48 hrs by MTT assay relative to control. It counts as cell-based, COS-7. The conditions noted are these: chlorocebus aethiops, read-out: Activity.
Series [8] is described as follows: Cytotoxicity against African green monkey COS7 cells assessed as cell viability at 100 uM after 48 hrs by MTT assay relative to control. Type of series: cell-based, COS-7. As to conditions: chlorocebus aethiops, read-out: Activity.
The subject of series [9] is HeLa. As to the kind of experiment: Cytotoxicity against human HeLa cells assessed as cell viability at 10 uM after 48 hrs by MTT assay relative to control. Type of series: functional. As to conditions: read-out: Activity.
The test system of series [10] is RAW264.7. As to the kind of experiment: Cytotoxicity against mouse RAW264.7 cells assessed as cell viability at 0.1 uM after 48 hrs by MTT assay relative to control. It counts as functional. As to conditions: RAW264.7, 48 h, read-out: Activity.
A short description of series [11]: Cytotoxicity against African green monkey COS7 cells assessed as cell viability at 0.1 uM after 48 hrs by MTT assay relative to control. Type of series: cell-based, COS-7. As to conditions: chlorocebus aethiops, read-out: Activity.
For series [12], the system named is HeLa. Briefly: Cytotoxicity against human HeLa cells assessed as cell viability at 0.1 uM after 48 hrs by MTT assay relative to control. The conditions noted are these: read-out: Activity. It counts as functional.
Series [13] deals with RAW264.7. As to the kind of experiment: Cytotoxicity against mouse RAW264.7 cells assessed as cell viability at 1 uM after 48 hrs by MTT assay relative to control. It counts as functional. As to conditions: RAW264.7, 48 h, read-out: Activity.
For another series, the system named is Heart. Briefly: Drug uptake in heart muscle of C57BL/6 mouse at 115.6 mg/kg, ip after 20 mins by fluorescence microscopy. It counts as ADME, organism-based, Muscle tissue. The arrangement: dose 115.6 mg/kg, route intraperitoneal. As to conditions: in vivo.
The next series concerns Brain. As to the kind of experiment: Drug uptake in brain of C57BL/6 mouse at 115.6 mg/kg, ip after 20 mins by fluorescence microscopy. It counts as ADME, organism-based. Further details: dose 115.6 mg/kg, route intraperitoneal. As to conditions: in vivo.
For another series, the system named is Spleen. Briefly: Drug uptake in spleen of C57BL/6 mouse at 115.6 mg/kg, ip after 20 mins by fluorescence microscopy. The arrangement: dose 115.6 mg/kg, route intraperitoneal. The conditions noted are these: in vivo. It counts as ADME, organism-based.
The subject of another series is Kidney. Briefly: Drug uptake in kidney of C57BL/6 mouse at 115.6 mg/kg, ip after 20 mins by fluorescence microscopy. The conditions noted are these: in vivo. The arrangement: dose 115.6 mg/kg, route intraperitoneal. Type of series: ADME, organism-based.
Another series concerns Lung. Briefly: Drug uptake in lung of C57BL/6 mouse at 115.6 mg/kg, ip after 20 mins by fluorescence microscopy. It counts as ADME, organism-based. The conditions noted are these: in vivo. The arrangement: dose 115.6 mg/kg, route intraperitoneal.
The next series relates to Liver. Briefly: Drug uptake in liver of C57BL/6 mouse at 115.6 mg/kg, ip after 20 mins by fluorescence microscopy. Type of series: ADME, organism-based. Further details: dose 115.6 mg/kg, route intraperitoneal. The conditions noted are these: in vivo.
In series [14] the test system is U-87MG ATCC. As to the kind of experiment: Antitumor activity against human U87MG cells xenografted in mouse assessed as tumor growth inhibition by measuring PCNA-positive cells at […] 7.5 mg/kg, po administered twice per week for 2 weeks measured after 4 weeks by immunohistochemical analysis relative to control. Type of series: functional, organism-based.
A further series concerns U-87 MG. As to the kind of experiment: Induction of apoptosis in human U87MG cells xenografted in mouse at 3.75 to 7.5 mg/kg, po administered twice per week for 2 weeks measured after 4 weeks by TUNEL-staining based immunohistochemical analysis relative to control. The conditions noted are these: U-87MG ATCC. Type of series: functional, organism-based.
Series [15] deals with U-87MG ATCC. Briefly: Antitumor activity against human U87MG cells xenografted in mouse assessed as decrease in microvessel density in tumor bed by measuring CD31-positive cells at […] 7.5 mg/kg, po administered twice per week for 2 weeks measured after 4 weeks by immunohistochemical analysis relative to control. Type of series: functional, organism-based.
A short description of series [16]: Antitumor activity against human U87MG cells xenografted in Balb/c nude mouse orthotopic model assessed as reduction in tumor volume at 3.75 mg/kg, po administered twice per week for 2 weeks measured after 4 weeks (reference value: 25 +/- 2.6 mm3). It counts as functional, U-87MG ATCC.

Calls of active or inactive are those of the source. No cut-off for these calls is given here.

Turning to `CC(=O)O[C@H]1C(=O)[C@@]2(C)[C@H]([C@H](OC(=O)c3ccccc3)[C@]3(O)C[C@H](OC(=O)[C@H](O)[C@@H](NC(=O)c4ccccc4)c4ccccc4)C(C)=C1C3(C)C)[C@]1(OC(C)=O)CO[C@@H]1C[C@@H]2O` [PACLITAXEL], the viability at 48 h, 1 µM in series [1] was 66.5%. Also, the Activity in series [2] was 19.4 mm3. The values for the viability at 100 µM in the series with HeLa [3] and in the series with RAW264.7 [6] were 56.5% and 13.3%, respectively. Further, the viability at 1 µM in the series on HeLa [4] turned out to be 86.3%; in the series with RAW264.7 [13], 39.2%. The viability at 10 µM with RAW264.7 [5] was 49.9%; in the series with HeLa [9] it was 96.1%. Besides, the viability at 48 h, 10 µM in series [7] is 71.9%. In series [8], the viability at 48 h, 100 µM is 41.5%. The viability at 0.1 µM stood at 39.3% with RAW264.7 [10] and 76.3% with HeLa [12]. For the same compound, the viability at 48 h, 0.1 µM in series [11] was 65.4%.

With `CC(=O)O[C@H]1C(=O)[C@@]2(C)[C@H]([C@H](OC(=O)c3ccccc3)[C@]3(O)C[C@H](OC(=O)[C@H](OC(=O)CCC(=O)OC[C@H](OC(=O)CCCCCN(CCCNC(=N)N)CCCNC(=N)N)[C@@H](OC(=O)CCCCCN(CCCNC(=N)N)CCCNC(=N)N)[C@H](OC(=O)CCCCCN(CCCNC(=N)N)CCCNC(=N)N)[C@@H](COC(=O)CCCCCNC(=S)Nc4ccc(-c5c6ccc(=O)cc-6oc6cc(O)ccc56)c(C(=O)O)c4)OC(=O)CCCCCN(CCCNC(=N)N)CCCNC(=N)N)[C@@H](NC(=O)c4ccccc4)c4ccccc4)C(C)=C1C3(C)C)[C@]1(OC(C)=O)CO[C@@H]1C[C@@H]2O.Cl`, the Drug uptake result with Heart, with Brain, in the series on Spleen, with Kidney, in the series on Lung and in the series with Liver was “Active” each time.

With `CC(=O)O[C@H]1C(=O)[C@@]2(C)[C@H]([C@H](OC(=O)c3ccccc3)[C@]3(O)C[C@H](OC(=O)[C@H](OC(=O)CCC(=O)OC[C@@H](OC(=O)CCCCCN(CCCNC(=N)N)CCCNC(=N)N)[C@@H](OC(=O)CCCCCN(CCCNC(=N)N)CCCNC(=N)N)[C@H](OC(=O)CCCCCN(CCCNC(=N)N)CCCNC(=N)N)[C@H](CO)OC(=O)CCCCCN(CCCNC(=N)N)CCCNC(=N)N)[C@@H](NC(=O)c4ccccc4)c4ccccc4)C(C)=C1C3(C)C)[C@]1(OC(C)=O)CO[C@@H]1C[C@@H]2O.Cl`, the viability at 48 h, 1 µM in series [1] came out at 92.4%. Further, the results for the Activity in series [2] and in series [16] were 4.7 mm3 and 6.1 mm3, respectively. Moreover, the viability at 100 µM in the series on HeLa [3] was found to be 3.8%; with RAW264.7 [6] it was 2.6%. The TGI entry with U-87MG ATCC [14] was “Active”. In addition, the viability at 1 µM was determined as 78% with HeLa [4] and 111% with RAW264.7 [13]. Also, the result in the series with U-87 MG and in the series on U-87MG ATCC [15] was Active. Besides, the viability at 10 µM in the series with RAW264.7 [5] came to 53.4%; in the series with HeLa [9], 83.1%. For the same compound, in series [7], the viability at 48 h, 10 µM worked out at 94.5%. For the same compound, the viability at 48 h, 100 µM in series [8] is 20.6%. The viability at 0.1 µM came out at 117% in the series with RAW264.7 [10] and 87.4% with HeLa [12]. Besides, in series [11], the viability at 48 h, 0.1 µM came to 96.2%.
